Measurements reported in EP1076558B1, “2-PHENYL-1-[-(2-AMINOETHOXY)-BENZYL -INDOLE IN COMBINATION WITH ESTROGENS” (Wyeth, priority 1998, dated 1999).
pEC50: −log10 of the molar value. Marks after values point to notes of the source that are not given here.

Key:
Ovariectomized Rat = test: 6-Week Ovariectomized Rat Model; format: in vivo; settings: ovx rats, daily x7 days/week, mean; for Body Weight / Cholesterol / Uterine Weight: following 6 weeks of treatment; for BMD L4 / BMD Proximal Tibia: following 5 weeks of treatment
Source text: Female Sprague Dawley CD rats, ovx or sham ovx, were obtained 1 day after surgery from Taconic Farm (weight range 240 - 275 g). They were housed 3 or 4 rats/cage in a room on a 14/10 (light/dark) schedule and provided with food (Purina 500 rat chow) and water ad libitum. Treatment for all studies began 1 day after the animals arrival and dosed 5 or 7 days per week as indicated for 6 weeks. A group of age matched sham operated rats not receiving any treatment served as an intact, estrogen replete control group for each study. All treatments were prepared in 1% tween 80 in normal saline at defined concentrations so that the treatment volume was 0.1mL/100g body weight. 17-beta estradiol was dissolved in corn oil (20 uG/mL) and delivered subcutaneously, 0.1 mL/rat. All dosages were adjusted at three week intervals according to group mean body weight measurements.
Five weeks after the initiation of treatment and one week prior to the termination of the study, each rat was evaluated for bone mineral density (BMD). The BMD's of the proximal tibiae (PT) and fourth lumbar vertabrae (L4) were measured in anesthetized rats using a dual energy X-ray absorptiometer (Eclipse XR-26, Norland Corp. Ft. Atkins, WI). The dual energy X-ray absorptiometer (DXA) measurements for each rat were performed as follows: Fifteen minutes prior to DXA measurements, the rat was anesthetized with an intraperitoneal injection of 100 mg/kg ketamine (Bristol Laboratories, Syracuse, NY) and 0.75 mg/kg acepromazine (Aveco, Ft.Dodge, IA). The rat was placed on an acrylic table under the DXA scanner perpendicular to its path; the limbs were extended and secured with paper tape to the surface of the table. A preliminary scan was performed at a scan speed of 50 mm/second with a scan resolution of 1.5 mm X 1.5 mm to determine the region of interest in PT and L4. Small subject software was employed at a scan speed of 10mm/second with resolution of 0.5 mm X 0.5 mm for final BMD measurements. The software allows the operator to define a 1.5 cm wide area to cover the total length of L4. The BMDs for respective sites were computed by the software as a function of the attenuation of the dual beam (46.8 KeV and 80 KeV) X-ray generated by the source underneath the subject and the detector travelling along the defined area above the subject. The data for BMD values (expressed in g/cm2) and individual scans were stored for statistical analysis. One week after BMD evaluation the rats were sacrificed by carbon dioxide suffocation and blood collected for cholesterol determination. The uteri were removed and the weights taken. Total cholesterol is determined using a Boehringer-Mannheim Hitachi 911 clinical analyzer using the Cholesterol/HP kit. Statitstics were compared using one-way analysis of variance with Dunnet's test.

Ishikawa cells = test: Ishikawa Cell Alkaline Phosphatase Assay; format: cell-based, human; settings: for % Activation: percent of response related to 1 nM 17β-estradiol, 48 h
Protocol: Cells were treated for 48 h prior to assay. […] Sample population for at each dose was n=8. […] Plates are placed at -80°C for a minimum of 15 minutes. Plates are thawed at 37°C followed by the addition of 150μL of 0.1 M Tris-HCl, pH 9.8, containing 4 mM para-nitrophenylphosphate (pNPP) to each well (final concentration. 3 mM pNPP). Absorbance and slope calculations were made using the […] Application program (Bio-Tek Instruments, Inc., Winooski, VT). […] Various compounds were assayed for estrogenic activity by the alkaline phosphatase method and corresponding ED50 values (95% C.I.) were calculated. The four listed in the following were used as as reference standards: A description of these methods is described by Holinka, […]., Kuramoto, H. and Gurpide, E. (1986) Effects of steroid hormones and antisteroids on alkaline phosphatase activity in human endometrial cancer cells (Ishikawa Line). Cancer Research, 46:2771-2774, and by […]. and […] simple and sensitive microtiter plate estrogen bioassay based on stimulation alkaline phosphatase in Ishikawa cells; […] Endocrinology, 6:2757-2762.

[1] = with 1 nM 17β-estradiol (antiestrogen test)

| pEC50 (Ishikawa cells; Homo sapiens, Ishikawa, estrogenic activity by the alkaline phosphatase method, reference standards, read-out: ED50 values (95% C.I.)) | Compound | Body Weight (Ovariectomized Rat; 2µg/rat, s.c.) | % Activation (Ishikawa cells; compound alone) | BMD L4 (Ovariectomized Rat; 0.3mg/kg, p.o.) | BMD Proximal Tibia (Ovariectomized Rat; 0.3mg/kg, p.o.) | Body Weight (Ovariectomized Rat; 0.3mg/kg, p.o.) | Cholesterol (Ovariectomized Rat; 0.3mg/kg, p.o.) | Uterine Weight (Ovariectomized Rat; 0.3mg/kg, p.o.) | % Activation (Ishikawa cells; [1]) | BMD L4 (Ovariectomized Rat; 3mg/kg, p.o.) | BMD Proximal Tibia (Ovariectomized Rat; 3mg/kg, p.o.) | Body Weight (Ovariectomized Rat; 3mg/kg, p.o.) | Cholesterol (Ovariectomized Rat; 3mg/kg, p.o.) | Uterine Weight (Ovariectomized Rat; 3mg/kg, p.o.) |
| --- | --- | --- | --- | --- | --- | --- | --- | --- | --- | --- | --- | --- | --- | --- |
| […] | C[C@]12CC[C@@H]3c4ccc(O)cc4CC[C@H]3[C@@H]1CC[C@@H]2O [17β-estradiol] | 33.1** g | […] |  |  |  |  |  |  |  |  |  |  |  |
|  | Cc1c(-c2ccc(O)cc2)n(Cc2ccc(OCCN3CCCCCC3)cc2)c2ccc(O)cc12 [Example No. 98, 1-[4-(2-Azepan-1-yl-ethoxy)-benzyl]-2-(4-hydroxy-phenyl)-3-methyl-1H-indol-5-ol] |  | 1% activity (1% with 1 nM 17β-estradiol) | 0.173 mg/cm^2 | 0.210** mg/cm^2 | 46.8 g | 59.0** mg/dl | 149.3 mg | 1% activity (1% with 1 nM 17β-estradiol) |  |  |  |  |  |
|  | O=C(c1ccc(OCCN2CCCCC2)cc1)c1c(-c2ccc(O)cc2)sc2cc(O)ccc12 [raloxifene] |  | 5% activity (5% with 1 nM 17β-estradiol) |  |  |  |  |  | 5% activity (5% with 1 nM 17β-estradiol) | 0.170 mg/cm^2 | 0.207** mg/cm^2 | 25.3** g | 55.0** mg/dl | 191.6** mg |
